Measured values from the supplement of paper PMC10307832.

Experiments:
Experiment in all cases: relative viability (nuclei count vs DMSO), 5 days (fraction); higher = more cells survive
Obatoclax + Foretinib = compound: COC1=CC(c2cc3ccccc3[nH]2)=N/C1=C\c1[nH]c(C)cc1C [Obatoclax] + COc1cc2c(Oc3ccc(NC(=O)C4(C(=O)Nc5ccc(F)cc5)CC4)cc3F)ccnc2cc1OCCCN1CCOCC1 [Foretinib] (partner 0.25 µM)
Procedure, shortened: (§1)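 Relative viability is defined as nuclei in treated wells over nuclei in vehicle wells. Duplicate plates were run and medians reported. Lung cancer cell lines in 1536-well plates were dosed by pin tool one day after seeding, with one drug or with a fixed anchor-drug dose plus five library-drug doses (not always all listed) in √10 steps, and nuclei were counted after 5 days.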

Obatoclax + Lapatinib = compound: COC1=CC(c2cc3ccccc3[nH]2)=N/C1=C\c1[nH]c(C)cc1C [Obatoclax] + CS(=O)(=O)CCNCc1ccc(-c2ccc3ncnc(Nc4ccc(OCc5cccc(F)c5)c(Cl)c4)c3c2)o1 [Lapatinib] (partner 2 µM)
Procedure, shortened: as §1

Obatoclax + AZD7762 = compound: COC1=CC(c2cc3ccccc3[nH]2)=N/C1=C\c1[nH]c(C)cc1C [Obatoclax] + NC(=O)Nc1cc(-c2cccc(F)c2)sc1C(=O)N[C@H]1CCCNC1 [AZD7762] (partner 0.2 µM)
Procedure, shortened: as §1

Obatoclax + Vorinostat = compound: COC1=CC(c2cc3ccccc3[nH]2)=N/C1=C\c1[nH]c(C)cc1C [Obatoclax] + O=C(CCCCCCC(=O)Nc1ccccc1)NO [Vorinostat] (partner 1 µM)
Procedure, shortened: as §1

| Cell Line | relative viability (Obatoclax + Foretinib; first compound 0.01 µM) | relative viability (Obatoclax + Foretinib; first compound 0.03162 µM) | relative viability (Obatoclax + Foretinib; first compound 0.1 µM) | relative viability (Obatoclax + Foretinib; first compound 0.3162 µM) | relative viability (Obatoclax + Foretinib; first compound 1 µM) | relative viability (Obatoclax + Lapatinib; first compound 0.01 µM) | relative viability (Obatoclax + Lapatinib; first compound 0.03162 µM) | relative viability (Obatoclax + Lapatinib; first compound 0.1 µM) | relative viability (Obatoclax + Lapatinib; first compound 0.3162 µM) | relative viability (Obatoclax + Lapatinib; first compound 1 µM) | relative viability (Obatoclax + AZD7762; first compound 0.01 µM) | relative viability (Obatoclax + AZD7762; first compound 0.03162 µM) | relative viability (Obatoclax + AZD7762; first compound 0.1 µM) | relative viability (Obatoclax + AZD7762; first compound 0.3162 µM) | relative viability (Obatoclax + AZD7762; first compound 1 µM) | relative viability (Obatoclax + Vorinostat; first compound 0.01 µM) | relative viability (Obatoclax + Vorinostat; first compound 0.03162 µM) | relative viability (Obatoclax + Vorinostat; first compound 0.1 µM) | relative viability (Obatoclax + Vorinostat; first compound 0.3162 µM) | relative viability (Obatoclax + Vorinostat; first compound 1 µM) |
| --- | --- | --- | --- | --- | --- | --- | --- | --- | --- | --- | --- | --- | --- | --- | --- | --- | --- | --- | --- | --- |
| NCI-H1395 | 0.938 | 0.702 | 0.929 | 1.01 | 0.766 | 1 | 0.943 | 0.79 | 1.09 | 0.592 | 0.396 | 0.395 | 0.393 | 0.375 | 0.348 | 0.996 | 0.643 | 0.642 | 0.635 | 0.596 |
| NCI-H1437 | 1.22 | 1.28 | 1.21 | 1.16 | 1.25 | 0.755 | 0.859 | 0.712 | 0.707 | 0.433 | 1.12 | 1.16 | 1.03 | 1.08 | 0.895 | 0.834 | 0.808 | 0.791 | 0.696 | 0.589 |
| NCI-H1651 | 0.766 | 0.734 | 0.774 | 0.47 | 0.42 | 0.645 | 0.764 | 0.744 | 0.664 | 0.341 | 0.488 | 0.4 | 0.421 | 0.431 | 0.439 | 0.587 | 0.491 | 0.512 | 0.384 | 0.595 |
| NCI-H1666 | 0.952 | 0.989 | 0.959 | 0.482 | 0.384 | 0.868 | 0.682 | 0.469 | 0.273 | 0.291 | 0.959 | 0.823 | 0.789 | 0.815 | 0.581 | 1.03 | 1.08 | 1.11 | 0.998 | 0.754 |
| NCI-H1734 | 0.81 | 0.863 | 0.9 | 0.785 | 0.628 | 1.04 | 0.994 | – | 0.661 | 0.706 | 0.513 | 0.499 | 0.456 | 0.472 | 0.238 | 0.819 | 0.887 | 0.814 | 0.741 | 0.31 |
| NCI-H1755 | 0.913 | 0.937 | 0.886 | 0.908 | 0.961 | 1.04 | 1.03 | 0.81 | 1.07 | 0.995 | 0.387 | 0.468 | 0.381 | 0.457 | 0.423 | 0.698 | 0.765 | 0.767 | 0.753 | 0.728 |
| NCI-H1793 | 0.602 | 0.743 | 0.758 | 0.609 | 0.675 | 0.802 | 0.68 | 0.61 | 0.717 | 0.836 | 0.484 | 0.419 | 0.499 | 0.368 | 0.209 | 0.725 | 0.71 | 0.714 | 0.711 | 0.722 |
| NCI-H1915 | 1.07 | 1.09 | 1.06 | 1.06 | 1.07 | 1.03 | 0.879 | 0.852 | 0.978 | 0.925 | 0.697 | 0.573 | 0.648 | 0.752 | 0.562 | 0.543 | 0.426 | 0.501 | 0.481 | 0.538 |
| NCI-H1944 | 0.877 | 0.772 | 0.894 | 0.942 | 0.933 | 0.904 | 0.659 | 0.791 | 0.794 | 0.787 | 0.481 | 0.695 | 0.492 | 0.551 | 0.494 | 0.519 | 0.484 | 0.57 | 0.561 | 0.527 |
| NCI-H1975 | 0.973 | 1.02 | – | 0.854 | 0.296 | 1.01 | 0.823 | 0.649 | 0.825 | 0.341 | 0.744 | 0.654 | – | 0.728 | 0.756 | 0.674 | 0.775 | 0.73 | 0.735 | 0.788 |
| NCI-H1993 | 0.766 | 0.757 | 0.807 | 0.771 | 0.876 | 0.809 | 0.771 | 0.835 | 0.755 | 0.865 | 0.769 | 0.789 | 0.898 | 0.818 | 0.536 | 0.907 | 0.847 | 0.857 | 1.08 | 0.812 |
| NCI-H2085 | 0.761 | 0.998 | 1.14 | 0.795 | 0.531 | 0.808 | 0.695 | 0.686 | 0.533 | 0.394 | 0.932 | 0.991 | 0.952 | 0.621 | 0.299 | 0.748 | 0.776 | 0.669 | 0.787 | 0.342 |
| NCI-H2087 | 1.21 | 1.05 | 1.1 | 0.324 | 0.465 | 0.954 | 0.901 | 0.776 | 0.623 | 0.304 | 1.19 | 1.37 | 1.15 | 1.21 | 0.9 | 0.61 | 0.81 | 0.931 | 0.671 | 0.723 |
| NCI-H2126 | 1.11 | 1.1 | 1.12 | 1.16 | 1.13 | 0.736 | 0.733 | 0.809 | 0.739 | 0.802 | 1.08 | 0.951 | 1.05 | 1.06 | 0.974 | 0.748 | 0.688 | 0.993 | 0.807 | 0.792 |
| NCI-H2170 | 1 | 1.02 | 0.996 | 1.02 | 0.975 | 0.281 | 0.247 | 0.304 | 0.253 | 0.306 | 0.851 | 0.844 | 0.801 | 0.831 | 0.743 | 0.698 | 0.88 | 0.742 | 0.799 | 0.782 |
| NCI-H2347 | 1.09 | 0.831 | 0.918 | – | 1.04 | 0.933 | 0.901 | 0.542 | 0.89 | 0.857 | 0.687 | 0.836 | 0.777 | 0.695 | 0.869 | 0.633 | 0.71 | 0.514 | 0.54 | 0.465 |
